Like-named read-outs stand apart in the source and are kept apart here. Where a SMILES comes first, the peptide text is derived from it. Bridges are numbered along the chain shown (N, C = ends). [ ]: non-standard residue; d: D form. The star is where a group is joined. hPhe(3,5-F2-4-CF3) = N[C@@H](CCc1cc(F)c(C(F)(F)F)c(F)c1)C(=O)O; NPrPhe(4-CF3) = CCCN[C@@H](Cc1ccc(C(F)(F)F)cc1)C(=O)O; NMeGly(cPent) = CN[C@H](C(=O)O)C1CCCC1; NMeD = CN[C@@H](CC(=O)O)C(=O)O; NMeL = CN[C@@H](CC(C)C)C(=O)O; αMeS = C[C@](N)(CO)C(=O)O; Morpholide = C1CN(*)CCO1; Sar = CNCC(=O)O; tBu = CC(C)(C)*
What was measured:
[1] = target: GDP-bound KRAS wild-type protein (Homo sapiens, UniProt P01116); assay: Binding to KRAS by surface plasmon resonance (SPR), Single Cycle Kinetics; details: GDP-bound KRAS wild-type protein, read-out: KRAS KD
GDP-bound KRAS wild-type protein, sequence (P01116 whole entry): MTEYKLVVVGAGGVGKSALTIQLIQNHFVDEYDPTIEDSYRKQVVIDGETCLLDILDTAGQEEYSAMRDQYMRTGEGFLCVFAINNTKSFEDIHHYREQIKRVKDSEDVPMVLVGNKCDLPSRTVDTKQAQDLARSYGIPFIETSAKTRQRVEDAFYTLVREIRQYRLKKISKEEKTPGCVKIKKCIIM

[2] = target: GDP-bound NRAS wild-type protein (Homo sapiens, UniProt P01111); assay: Binding to NRAS by surface plasmon resonance (SPR), Single Cycle Kinetics; details: SPR; for NRAS/KRAS (ratio of KD value for NRAS to KD value for KRAS) / NRAS/KRAS (ratio of KD value with respect to NRAS to KD value with respect to KRAS): GDP-bound NRAS wild-type protein vs GDP-bound KRAS wild-type protein
GDP-bound NRAS wild-type protein, sequence (P01111 whole entry): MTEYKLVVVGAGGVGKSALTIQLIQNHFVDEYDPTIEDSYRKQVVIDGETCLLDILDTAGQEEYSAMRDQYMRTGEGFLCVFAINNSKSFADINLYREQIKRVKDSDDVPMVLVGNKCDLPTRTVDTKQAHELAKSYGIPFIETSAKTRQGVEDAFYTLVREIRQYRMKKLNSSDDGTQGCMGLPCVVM

[3] = target: GDP-bound HRAS wild-type protein (Homo sapiens, UniProt P01112); assay: Binding to HRAS by surface plasmon resonance (SPR), Single Cycle Kinetics; details: SPR; for HRAS/KRAS (ratio of KD value for HRAS to KD value for KRAS) / HRAS/KRAS (ratio of KD value with respect to HRAS to KD value with respect to KRAS): GDP-bound HRAS wild-type protein vs GDP-bound KRAS wild-type protein
GDP-bound HRAS wild-type protein, sequence (P01112 whole entry): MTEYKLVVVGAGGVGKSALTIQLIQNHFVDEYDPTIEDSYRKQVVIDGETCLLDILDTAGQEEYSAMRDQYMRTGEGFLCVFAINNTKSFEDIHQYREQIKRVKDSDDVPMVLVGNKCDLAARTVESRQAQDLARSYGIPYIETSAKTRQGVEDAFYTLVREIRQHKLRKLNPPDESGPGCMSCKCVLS

[4] = system: human lung cancer strain NCI-H441;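 also: cell proliferation inhibition after four days measured by CellTiter-Glo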
[5] = SPR Single Cycle Kinetics, 1:1 binding model
[6] = SPR, Single Cycle Kinetics, 1:1 binding model

Kd ([1]; SPR, Single Cycle Kinetics) | IC50 [4] | Kd [1, 6] | SMILES | NRAS/KRAS (ratio of KD value for NRAS to KD value for KRAS) [2] | HRAS/KRAS (ratio of KD value for HRAS to KD value for KRAS) [3] | NRAS/KRAS (ratio of KD value for NRAS to KD value for KRAS) ([2]; KD ratio class) | HRAS/KRAS (ratio of KD value for HRAS to KD value for KRAS) ([3]; KD ratio class) | also measured
0.62 nM | 4.8 nM | – | CCOC[C@H]1C(=O)N[C@@H]([C@@H](C)CC)C(=O)N2CCC[C@H]2C(=O)N(C)[C@H]2C/C=C\CCN(C2=O)[C@@H](Cc2ccc(C)cc2)C(=O)N(C)CC(=O)N[C@@H](CCc2cc(F)c(C(F)(F)F)c(F)c2)C(=O)N2C[C@H](OCC)C[C@H]2C(=O)NC2(CC(C)(C)C2)C(=O)N(C)[C@@H](C2CCCC2)C(=O)N(C)[C@H](C(=O)N(C)CC)CC(=O)N1C [PP2428] | A (a compound having 10 or more and less than 20 is denoted as A) | A (a compound having 10 or more and less than 20 is denoted as A) | – | – | –
– | 215 nM | – | CCCN1C(=O)CN(C)C(=O)CN(C)C(=O)[C@H]([C@@H](C)CC)NC(=O)[C@H](CC(C)C)N(C)C(=O)C[C@@H](C(=O)N2CCOCC2)N(C)C(=O)[C@H](C2CCCC2)N(C)C(=O)[C@](C)(COC(C)(C)C)NC(=O)[C@@H]2CCCN2C(=O)[C@H](CCc2cc(F)c(C(F)(F)F)c(F)c2)NC(=O)CN(C)C(=O)[C@@H]1Cc1ccc(C(F)(F)F)cc1 [PP0764] ([NMeL]I[Sar][Sar][NPrPhe(4-CF3)][Sar][hPhe(3,5-F2-4-CF3)]P[αMeS](tBu)[NMeGly(cPent)][NMeD]-Morpholide; lactam N-11) | – | – | – | – | Kd [1, 5]: 3.4 nM; NRAS/KRAS (ratio of KD value with respect to NRAS to KD value with respect to KRAS) [2]: B (a compound having 3 or more and less than 10 is denoted as B); HRAS/KRAS (ratio of KD value with respect to HRAS to KD value with respect to KRAS) [3]: B (a compound having 3 or more and less than 10 is denoted as B)
1.6 nM | 87.2 nM | – | CCOC[C@H]1C(=O)N[C@@H]([C@@H](C)CC)C(=O)N(C)CC(=O)N(C)[C@H]2C/C=C\CCN(C2=O)[C@@H](CC2CCC(F)(F)CC2)C(=O)N(C)CC(=O)N[C@@H](CCc2cc(F)c(C(F)(F)F)c(F)c2)C(=O)N2C[C@@H](C)C[C@H]2C(=O)NC2(CC(C)(C)C2)C(=O)N(C)[C@@H](C(CC)CC)C(=O)N(C)[C@H](C(=O)N(C)C)CC(=O)N1C [PP2462] | A (a compound having 10 or more and less than 20 is denoted as A) | A (a compound having 10 or more and less than 20 is denoted as A) | – | – | –
– | 127 nM | – | CCO[C@@H]1C[C@H]2C(=O)NC3(CC=CC3)C(=O)N(C)[C@@H](C3CCCC3)C(=O)N(C)[C@H](C(=O)N(C)C)CC(=O)N(C)[C@@H](C)C(=O)N[C@@H]([C@@H](C)CC)C(=O)N(C)CC(=O)N(C)[C@H]3CCCCCN(C3=O)[C@@H](Cc3ccc(C(F)(F)F)cc3)C(=O)N(C)CC(=O)N[C@@H](CCc3cc(F)c(C(F)(F)F)c(F)c3)C(=O)N2C1 [PP0724] | – | – | – | – | Kd [1, 5]: 0.44 nM; NRAS/KRAS (ratio of KD value with respect to NRAS to KD value with respect to KRAS) [2]: B (a compound having 3 or more and less than 10 is denoted as B); HRAS/KRAS (ratio of KD value with respect to HRAS to KD value with respect to KRAS) [3]: B (a compound having 3 or more and less than 10 is denoted as B)
– | 465 nM | 0.99 nM | CCO[C@@H]1C[C@H]2C(=O)NC3(CCC3)C(=O)N(C)[C@@H](C3CCCC3)C(=O)N(C)[C@H](C(=O)N(C)C)CC(=O)N(C)[C@@H](CC(C)C)C(=O)N[C@@H]([C@@H](C)CC)C(=O)N(C)CC(=O)N(C)[C@H]3C/C=C\CCN(C3=O)[C@@H](Cc3ccc(F)cc3)C(=O)N(C)CC(=O)N[C@@H](CCc3ccc4sccc4c3)C(=O)N2C1 [PP1427] | – | – | A (a compound having 10 or more and less than 20 is denoted as A) | B (a compound having 3 or more and less than 10 is denoted as B) | –
0.037 nM | – | – | CC[C@H](C)[C@@H]1NC(=O)[C@@H]2CCCCc3ccc(cc3)C[C@@H](C(=O)N(C)CC(=O)N[C@@H](CCc3ccc(C(F)(F)F)c(OC)c3)C(=O)N3C[C@H](OC4CCCC4)C[C@H]3C(=O)NC3(CC(C)(C)C3)C(=O)N(C)[C@@H](C3CCCC3)C(=O)N(C)[C@H](C(=O)N(C)C)CC(=O)N2C)N2CC/C=C\C[C@@H](C2=O)N(C)C(=O)CN(C)C1=O [PP3080] | A (a compound having 10 or more and less than 20 is denoted as A) | B (a compound having 3 or more and less than 10 is denoted as B) | – | – | ratio of the KD value with respect to GDP-bound NRAS wild-type protein to the KD value with respect to KRAS ([2]; KD(NRAS)/KD(KRAS)): A (a compound having 10 or more and less than 20 is denoted as A); ratio of the KD value with respect to GDP-bound HRAS wild-type protein to the KD value with respect to KRAS ([3]; KD(HRAS)/KD(KRAS)): B (a compound having 3 or more and less than 10 is denoted as B); IC50 ([4]; read-out: NCI-H441 cell proliferation inhibitory activity, 50% proliferation inhibitory concentration (IC50 value), NCI-H441, four days, CellTiter-Glo): 4.3 nM
3.2 nM | 33.9 nM | – | CCC[C@H]1C(=O)N[C@@H]([C@@H](C)CC)C(=O)N(C2CC2)CC(=O)N(C)[C@H]2C/C=C\CCN(C2=O)[C@@H](CC2CCCCC2)C(=O)N(C)CC(=O)N[C@@H](CCc2ccc(C(F)(F)F)c(OC)c2)C(=O)N2C[C@H](OCC)C[C@H]2C(=O)N(C)C2(CCC2)C(=O)N(C)[C@@H](C(CC)CC)C(=O)N(C)[C@H](C(=O)N(C)C)CC(=O)N1C [PP2337] | A (a compound having 10 or more and less than 20 is denoted as A) | A (a compound having 10 or more and less than 20 is denoted as A) | – | – | –
– | 4.9 nM | 0.047 nM | CCO[C@@H]1C[C@H]2C(=O)NC3(CC(C)(C)C3)C(=O)N(C)[C@@H](C3CCCC3)C(=O)N(C)[C@H](C(=O)N(C)C)CC(=O)N(C)[C@@H](CC)C(=O)N[C@@H]([C@@H](C)CC)C(=O)N(C)CC(=O)N(C)[C@H]3C/C=C\CCN(C3=O)[C@@H](Cc3ccc(C(F)(F)F)cc3)C(=O)N(C)CC(=O)N[C@@H](CCc3cc(F)c(C(F)(F)F)c(F)c3)C(=O)N2C1 [PP1275, (2S,8S,12R,14S,20S,23S,27S,30S,36S,38Z)-20-cyclopentyl-8-[2-[3,5-difluoro-4-(trifluoromethyl)phenyl]ethyl]-12-ethoxy-27-ethyl-N,N,3′,3′,4,19,22,26,32,35-decamethyl-30-[(1S)-1-methylpropyl]-3,6,9,15,18,21,25,28,31,34,42-undecaoxo-2-[[4-(trifluoromethyl)phenyl]methyl]spiro[1,4,7,10,16,19,22,26,29,32,35-undecazatricyclo[34.5.1.0^10,14]dotetracont-38-ene-17,1′-cyclobutane]-23-carboxamide] | – | – | A (a compound having 10 or more and less than 20 is denoted as A) | A (a compound having 10 or more and less than 20 is denoted as A) | –
– | 28.9 nM | 0.12 nM | CCO[C@@H]1C[C@H]2C(=O)NC3(CCC3)C(=O)N(C)[C@@H](C3CCCC3)C(=O)N(C)[C@H](C(=O)N(C)C)CC(=O)N(C)[C@@H](CC3CC3)C(=O)N[C@@H]([C@@H](C)CC)C(=O)N(C)CC(=O)N(C)[C@H]3C/C=C\CCN(C3=O)[C@@H](CC3CCC(F)(F)CC3)C(=O)N(C)CC(=O)N[C@@H](CCc3cc(F)c(C(F)(F)F)c(F)c3)C(=O)N2C1 [PP1447, (2S,8S,12R,14S,20S,23S,27S,30S,36S,38Z)-20-cyclopentyl-27-(cyclopropylmethyl)-2-[(4,4-difluorocyclohexyl)methyl]-8-[2-[3,5-difluoro-4-(trifluoromethyl)phenyl]ethyl]-12-ethoxy-N,N,4,19,22,26,32,35-octamethyl-30-[(1S)-1-methylpropyl]-3,6,9,15,18,21,25,28,31,34,42-undecaoxo-spiro[1,4,7,10,16,19,22,26,29,32,35-undecazatricyclo[34.5.1.0^10,14]dotetracont-38-ene-17,1′-cyclobutane]-23-carboxamide] | – | – | A (a compound having 10 or more and less than 20 is denoted as A) | A (a compound having 10 or more and less than 20 is denoted as A) | –

From patent US20240158446A1, “CYCLIC COMPOUND HAVING SELECTIVE INHIBITORY ACTION ON KRAS OVER HRAS AND NRAS” (CHUGAI SEIYAKU KABUSHIKI KAISHA, priority 2021, published 2024)
